Data set [1] concerns alcoholic liver cirrhosis. The note with it: oral SAMe, compared with a placebo treated group; cited from earlier work.
Data set [2] can be described thus: Storage stability at room temperature, checked by UV absorption spectra and HPLC. Format: physicochemical. The conditions noted are these: for maximum absorption peak at 420 nm (toxic degradation products of incorporated IPA): UV absorption spectra, initial and after eight months at room temperature; for SAMe degradation products by HPLC or UV absorption spectra: stored for eight months at room temperature. The text has this: Stability of the IPA salt can be assessed by the method disclosed in Bottiglieri, T. (1990), Biomed Chromatogr, 4(6):239-41.
Ultraviolet-visible light absorption spectra were obtained for the product of Synthetic Example 1 and the product of Synthetic Example 2 (see FIG. 1 and FIG. 2, respectively). An ultraviolet-visible light absorption spectrum was also obtained at the same time for a blank sample (see FIG. 5) for control purposes.
The product of Synthetic Example 1 and the product of Synthetic Example 2 were then stored for eight months at room temperature, after which ultraviolet-visible light absorption spectra were obtained for the stored products (see […] and FIG. 4). An ultraviolet-visible light absorption spectrum was also obtained at the same time for a blank sample (see FIG. 6) for control purposes.
This is in stark contrast to the unstable nature of, for example, previously known salts of SAMe, such as the tosylate or 1,4-butanedisulfonate salts, the stability of which can be determined in the same manner as described herein.

In data set [3] the test system is Caco-2 cells. The data set can be described thus: In vitro Caco-2 permeability assay (apical to basolateral). The note with it: for mean A->B Papp: analyte SAMe, test compound 2 mM, A side pH 6.5, B side pH 7.4, 2 hours. The protocol: The following in vitro permeability assay was conducted to determine the efficacy of certain absorption enhancers in increasing the permeability of a IPA salt of SAMe, or a pharmaceutically acceptable salt thereof, of the invention. See Stewart, B H, et al. (1995) “Comparison of intestinal permeabilities determined in multiple in vitro and in situ models: Relationship to absorption in humans,” Pharm. Res. 12:693.
The test compound was the IPA salt of SAMe 1,4-butanedisulfonate (the product of Synthetic Example 2) (SAMeIPA). The concentration of the test compound used in the assay was 2 mM.
The signal was optimized for each test formulation by ESI positive or negative ionization mode. An MS2 scan or a SIM scan was used to optimize the fragmenter voltage and a product ion analysis was used to identify the best fragment for analysis, and the collision energy was optimized using a product ion or MRM scan. An ionization ranking was assigned indicating the formulation's ease of ionization.
Samples were analyzed by LC/MS/MS using an Agilent 6410 mass spectrometer coupled with an Agilent 1200 HPLC and a CTC PAL chilled autosampler, all controlled by MassHunter software (Agilent). After separation on a C18 reverse phase HPLC column (Agilent, Waters, or equivalent) using an acetonitrile-water gradient system, peaks were analyzed by mass spectrometry (MS) using ESI ionization in MRM mode.
The permeability of SAMe and IPA were measured independently. […]
For Apical to Basolateral (A->B) permeability, the test formulation was added to the apical (A) side and amount of permeation is determined on the basolateral (B) side; for Basolateral to Apical (B>A) permeability, the test formulation was added to the B side and the amount of permeation was determined on the A side. […]
To verify the Caco-2 cell monolayers were properly formed, aliquots of the cell buffers were analyzed by fluorescence to determine the transport of the impermeable dye Lucifer Yellow.
Data was expressed as apparent permeability (Papp). […]

Regarding `C[S+](CC[C@H](N)C(=O)O)C[C@H]1O[C@@H](n2cnc3c(N)ncnc32)[C@H](O)[C@@H]1O` (stereo partly drawn) [SAMe, S-adenosyl-L-methionine], in data set [1], the “overall mortality and/or progression to liver transplant” value is reported as 12%.

“S-Adenosyl-L-methionine 1,4-butanedisulfonate indole-3-propionate [SAMeIPA]”: the “maximum absorption peak at 420 nm (toxic degradation products of incorporated IPA)” value in data set [2] is given as “no maximum absorption peaks at 420 nm were noted”. Moreover, the “SAMe degradation products by HPLC or UV absorption spectra” value in data set [2] was “No SAMe degradation products were detected”. Moreover, the figures for the “mean A->B Papp” value in data set [3] and in data set [3] (listed as S-adenosyl-L-methionine 1,4-butanedisulfonate indole-3-propionate salt) were 0.20 and “low”, respectively. For the same molecule, the “fold increase in S-adenosyl-L-methionine permeability” value in data set [3] (using trimethyl chitosan homopolymer as the absorption enhancer) was 37.5 fold.

On to “S-Adenosyl-L-methionine p-toluenesulfonate indole-3-propionate [Synthetic Example 1]”, for which, in data set [2], the “maximum absorption peak at 420 nm (toxic degradation products of incorporated IPA)” value is given as “no maximum absorption peaks at 420 nm were noted” and the “SAMe degradation products by HPLC or UV absorption spectra” value is reported as “No SAMe degradation products were detected”.

Values taken from patent US9534010B2, “Stable indole-3-propionate salts of S-adenosyl-L-methionine” (HEBERT SAM-E LLC, priority 2013, dated 2017).
